We go through 1 molecule from patent US20090286738A1, “Gene Regulation” (ST. GEORGE'S ENTERPRISES LIMITED, priority 2005, published 2009).

The subject of data set [1] is HOX/PBX/DNA complexes. Put plainly: Band shift assay, protein extracted from treated B16 tumours. Particulars: tumours treated for two hours. Type of data set: in vivo, mice. How it is done:
Double stranded oligodexoynucleotide probes were incubated in protein extracted from B16 tumours. One of these probes (HP) contained a HOX/PBX consensus binding region (bold)—5′ CTGTTTGATT TATTTGTTTA 3′. A second, control probe (CP) contained an altered HOX/PBX binding site that is not predicted to bind HOX and PBX proteins—5′ CTGTTACTGA CGATTGTTTA 3′. […] The mobility of CP was unchanged by incubating with the protein extract (lane 11). […] U, untreated; C, CX2Arg9(2D) treated; H, HXArg9(2D) treated; +HP, the HP probe was added to the lysates with an excess of unlabelled probe as shown (0, 5 fold, or 25 fold); +CP, control probe added to lysates; ‘+anti PBX’, anti-PBX antibody added to lysate; ‘+block pep’, a blocking peptide was added to the lysate that blocks anti-PBX antibody from binding to PBX.
(§1) In order to assess whether the hexapeptide could block HOX/PBX binding in vivo, tumours were treated with HXArg9 for two hours and then used to produce nuclear lysates.

Data set [2] can be described thus: Stability of peptides in human plasma at 37° C., SDS-PAGE. Type of data set: in vitro ADME. How it is done:
Peptides were incubated in human serum for the times shown and then visualised on a Coomassie brilliant blue stained gel. The arrow heads indicate the position of intact peptide. Standard=peptide only in this lane as a marker.
The stability of HXArg9(2D) and CX2Arg9(2D) was assessed by incubation each with human plasma at 37° C. and the amount of peptide remaining after different amounts of time was assessed by SDS-PAGE. Each peptide was added to freshly prepared human plasma to a final concentration of 1 mM in a total volume of 40 μl. Samples were incubated at 37° C. and reactions were stopped by adding 60 μl of water and 0.9 ml of protein gel loading buffer (BioRad, USA) containing 1% 2-mercaptoethanol, and heating to 95° C. for four minutes. 2 μl of each sample was run on a 22% acrylamide gel. […] This compared with a half life of approximately 40 minutes for the L isomer form HXArg9.

Data set [3] relates to A549 tumours. Put plainly: Treatment of A549 tumours in vivo. On the set-up: species or system mice. Particulars: twice weekly, 100 mg/kg followed by 10 mg/kg. As for the experimental part: FIG. 13. Treatment of A549 tumours in vivo. Nude mice were injected with one million A549 cells subcutaneously and treatment was started when tumours reached an average volume of 100 mm^3. […] (a) intralesional (IT) administration, (b) intraperitoneal (IP) administration.
(§2) Control groups received control peptide and PBS accordingly. For the A549 tumour model, […] were used to establish flank models. This study was conducted by Perry Scientific Inc., USA.
We also examined whether HXArg9 could block the growth of a non-melanoma tumour in vivo. In order to do this, we established flank tumours using the non-small cell lung cancer derived cell line A549 (Lieber, M., et al. Int. J. Cancer 17, 62-70 (1976)) in nude mice.

The test system of data set [4] is B16 tumours. Put plainly: Treatment of murine B16 tumours in vivo. To be noted: 15 mg/kg intraperitoneal. On the set-up: species or system mice. How it is done: FIG. 12. Treatment of murine B16 tumours in vivo. Mice were injected with one million B16 cells subcutaneously and treatment was started when tumours first became palpatable (day 1=first day after treatment). Mice were injected once daily for four days with an intraperitoneal dose of 15 mg/kg. (a) Changes in tumour size over treatment period (n=4). (b) Histological sections of tumours from HXArg9(2D) (HXR9) and CX2Arg9(2D) (CXR9) treated mice at the end of treatment.
Mice were maintained at the Biological Resource Facility at St. George's. Their care was in accordance to Home Office regulations. B16 cells in exponential growth phase were injected subcutaneously at a dose of 1×10^6 cells into C57black/6 mice. Tumour growth was monitored daily. Once tumours were established, mice received 15 mg/kg HXArg9(2D) intraperitoneal. Mice were euthanised and tumours excised and fixed for histopathological analysis.
as §2
The B16 F10 murine tumour is a well established in vivo model of melanoma, and is also one of the most aggressive murine tumours (Fidler, I. J. & Nicolson, G. L. Isr. J. Med. Sci. 14, 38-50 (1978), Shrayer, D. et al. Cancer Immunol Immunother. 40, 277-282 (1995)). […]

The subject of data set [5] is B16 tumours. Put plainly: QPCR of RNA extracted from treated B16 tumours. In kind it is in vivo, mice. To be noted: IP 15 mg/Kg, two hours after treatment. How it is done:
FIG. 10. […] RNA extracted from (a) B16 cells cultured in vitro and treated with 60 μM peptide for two hours, and (b) B16 tumours treated with peptide injected IP at 15 mg/Kg body weight; tumours were excised and RNA was extracted two hours after treatment. Results are expressed as a proportion of the level of β-actin transcripts. For (a), the results are an average of 2 separate experiments, for (b), the results are an average for tumours taken from three individual mice. U, untreated; C, CX2Arg9(2D) treated; H, HXArg9(2D) treated. Error bars represent the standard error of the mean.
as §1

In data set [6] the test system is B16 murine melanoma cells. Put plainly: Living and dead B16 cells after 3 hours (FIGS. 2A, 9). In kind it is cell-based. To be noted: 3 hours. As for the experimental part: In FIG. 2A the peptides as indicated were applied to the cells at a concentration of 60 μM. The number of living and dead cells were assessed after 3 hours. Black bars=number of cells dead. White bars=number of cells alive.
(§3) The peptides as indicated were applied to the cells at a concentration of 60 μM (FIG. 6A) or 6 μM (FIG. 6B). In both experiments the HXArg9, CX1Arg9 and CX2Arg9 peptides used were the (2D) variant peptides in which the N- and C-terminal amino acids are in the D conformation and all remaining amino acids are in the L conformation. The number of living and dead cells were assessed after 3 hours. Black bars=% or number of cells dead. White bars=% or number of cells alive.
The HXArg9 peptide used was the (2D) variant peptide in which the N- and C-terminal amino acids are in the D conformation and all remaining amino acids are in the L conformation. HXArg9 was applied to the cells at a variety of concentrations (μM), and the number of dead and living cells was assessed after 3 hours. Black bars=% cells dead. White bars=% cells alive.
(§4) Cell lines were seeded at 4×10^4 cells/ml in liquid culture system made of RPMI-1640 medium (Life Technologies, UK) supplemented with Foetal Calf Serum (10% Sigma Aldrich) and penicillin/streptomycin (1%, Sigma) and at least in duplicate. When required the test peptide was added to the medium. Cell lines were cultured for up to 7 days at 37° C., 5% CO2 in humidified atmosphere. Cultured cells were then assessed for cell viability/enumeration using trypan blue exclusion (Sigma Aldrich).

Data set [7] deals with malignant cell lines (B16 mouse melanoma, LNCAP human prostate cancer, K562). Put plainly: Activity of peptides on different malignant cell lines, living and dead cells after 3 hours (FIGS. 6 to 8). In kind it is cell-based. Particulars: further experiments. As for the experimental part: as §3
The peptides as indicated were applied to the cells at a concentration of 60 μM (FIG. 7A) or 6 μM (FIG. 7B). In both experiments the HXArg9, CX1Arg9 and CX2Arg9 peptides used were the (2D) variant peptides in which the N- and C-terminal amino acids are in the D conformation and all remaining amino acids are in the L conformation. The number of living and dead cells were assessed after 3 hours. Black bars=% or number of cells dead. White bars=% or number of cells alive.
as §3, with “μM. HXArg9(2D) is” for “μM (FIG. 6A) or 6 μM (FIG. 6B). In both experiments”, “variant form of HXArg9 in which the N-terminal and C-terminal amino acids are in the D conformation and the remaining amino acids are in the L conformation. HXArg9 consists of only L-conformation amino acids. The” for “HXArg9,”, “bars=%” for “bars=% or number of”
as §4
The activity of the peptides described above was tested on a number of different malignant cell lines using a similar assay to that described previously.

With `CSCC[C@H](NC(=O)[C@H](Cc1c[nH]c2ccccc12)NC(=O)[C@@H]1CCCN1C(=O)[C@H](Cc1ccc(O)cc1)NC(=O)[C@@H](N)Cc1c[nH]c2ccccc12)C(=O)N[C@@H](CCCCN)C(=O)N[C@@H](CCCCN)C(=O)N[C@@H](Cc1c[nH]cn1)C(=O)N[C@@H](Cc1c[nH]cn1)C(=O)N[C@@H](CCCNC(=N)N)C(=O)N[C@@H](CCCNC(=N)N)C(=O)N[C@@H](CCCNC(=N)N)C(=O)N[C@@H](CCCNC(=N)N)C(=O)N[C@@H](CCCNC(=N)N)C(=O)N[C@@H](CCCNC(=N)N)C(=O)N[C@@H](CCCNC(=N)N)C(=O)N[C@@H](CCCNC(=N)N)C(=O)N[C@@H](CCCNC(=N)N)C(=O)O` [HXArg9, WYPWMKKHHRRRRRRRRR], the “binding of tumour protein extract to HOX/PBX consensus probe” value in data set [1] is “could not bind a DNA probe containing a HOX/PBX consensus binding site”. Further, the half-life in data set [2] is about 40 min. The tumour growth entry in data set [3] was “significant reduction in tumour growth”. Further, the “histological analysis of excised tumours” value in data set [4] is on record as “inner cell death”. In addition, the “tumour size at end point” value in data set [4] (once daily for four days) is “significant degree of shrinkage”. Moreover, the “transcripts of Fos, Jun, Dusp1 and Atf3 (QPCR)” value in data set [5] was “upregulated”. The values for the ablation of cells entry in data set [6] (4.625 μM), in data set [6] (37 μM) and in data set [6] (74 μM) were “significant ablation”, “ablation of substantially all” and “ablation of substantially all”, respectively. Further, the “effectiveness in preventing cellular proliferation compared with HXP4” value in data set [7] was “as effective as HXP4”.
